{"source": "patent US20240009272A1", "about": "“METHODS, SYSTEMS, AND COMPOSITIONS FOR LEGUME-BASED PRODUCTION OF THERAPEUTIC PROTEINS AND THERAPEUTIC MEDICAL MATERIALS” (Arizona Board of Regents on Behalf of The University of …, priority 2017, published 2024)", "experiment": "Stability of rhEGF in soymilk, read out by bioactivity on Hela cell EGFR", "format": "physicochemical", "conditions": "in soymilk over 24 hours; Hela cell EGFR abundance", "method": "Hela cells (obtained from American Tissue Culture Collection) were cultured in Minimum Essential Media (MEM) complemented with 10% Fetal Bovine Serum (FBS), 100 units/ml penicillin, and 100 μg/ml streptomycin. For the western blotting assay, cells grown in a 6-well plate were kept in serum-free MEM media for 24 hours. Cells were then either kept in a serum-free medium (control) or stimulated with soy milk alone, soy EGF, or commercial recombinant human EGF for different time periods as indicated. Cells were lysed by directly adding 1×SDS sample buffer (50 mM Tris-HCl, pH 6.8, 10% glycerol, 2% SDS, and 5% β-ME) to the cells after washing 3 times with 1×PBS. EGF bio-activity was determined via EGFR phosphorylation and downstream AKT phosphorylation. Total EGFR was also measured since EGFR is known to undergo internalization when stimulated with EGF. Antibodies used in western blot are anti-p-EGFR (Tyr1068) (#2234, Cell Signaling Technology), anti-total EGFR (#06-847, Millipore), anti-p-AKT (#4060, Cell Signaling Technology) and anti-Lamin B1 (#13435, Cell Signaling Technology). […] EGFR was labeled using an anti-EGFR antibody (#4267, Cell Signaling Technology) and detected with Alexa Fluor 594 Goat anti-rabbit IgG (#A11012, Life Technologies). […]"}
{"substance": "rhEGF: commercial recombinant human EGF (Gibco, Life Technologies), used as positive control", "values": [{"measurement": "bioactivity of rhEGF kept in soymilk versus control rhEGF", "result": "same bioactivity as control recombinant rhEGF"}]}
